Source: publication PMC9389588, “1,6-epi-Cyclophellitol Cyclosulfamidate Is a Bona Fide Lysosomal α-Glucosidase Stabilizer for the Treatment of Pompe Disease” (Journal of the American Chemical Society, 2022)

Tests used:
[1] = target: T1, β-glucosidase GBA2 (Homo sapiens, UniProt Q9HCG7); assay: in vitro apparent IC50, GBA2-overexpressing HEK293T lysate; type: biochemical; settings: apparent IC50, pH 5.8, mean ± SD
T1 construct: expressed in transfected cells; host or cells: HEK293T
T1 sequence (Q9HCG7 1-927): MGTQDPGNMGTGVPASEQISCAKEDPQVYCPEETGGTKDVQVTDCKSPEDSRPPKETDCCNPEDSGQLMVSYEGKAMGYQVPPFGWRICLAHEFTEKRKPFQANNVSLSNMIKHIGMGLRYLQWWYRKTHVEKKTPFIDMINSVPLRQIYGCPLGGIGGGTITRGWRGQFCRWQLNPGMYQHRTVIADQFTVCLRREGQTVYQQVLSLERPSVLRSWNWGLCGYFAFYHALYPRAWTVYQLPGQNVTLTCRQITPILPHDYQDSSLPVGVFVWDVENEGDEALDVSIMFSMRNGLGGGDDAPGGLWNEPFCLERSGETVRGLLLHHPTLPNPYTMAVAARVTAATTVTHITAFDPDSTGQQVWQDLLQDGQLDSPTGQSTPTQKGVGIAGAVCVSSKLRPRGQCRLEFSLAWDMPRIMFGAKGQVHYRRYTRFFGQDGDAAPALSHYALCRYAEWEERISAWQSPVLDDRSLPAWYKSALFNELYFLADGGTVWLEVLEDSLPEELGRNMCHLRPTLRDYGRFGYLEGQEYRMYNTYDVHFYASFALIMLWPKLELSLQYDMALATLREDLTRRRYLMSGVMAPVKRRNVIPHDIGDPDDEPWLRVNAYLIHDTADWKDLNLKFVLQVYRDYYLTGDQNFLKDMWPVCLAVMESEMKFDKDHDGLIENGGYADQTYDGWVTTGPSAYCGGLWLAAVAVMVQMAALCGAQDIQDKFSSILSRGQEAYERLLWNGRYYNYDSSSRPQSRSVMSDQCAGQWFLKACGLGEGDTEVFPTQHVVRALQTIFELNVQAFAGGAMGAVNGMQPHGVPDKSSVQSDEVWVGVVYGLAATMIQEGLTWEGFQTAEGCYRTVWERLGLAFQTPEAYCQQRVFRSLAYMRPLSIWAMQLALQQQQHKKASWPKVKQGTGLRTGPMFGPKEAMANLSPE

[2] = target: α-glucosidase GAA (Myozyme) (Homo sapiens, UniProt P10253); assay: kinetic studies in rhGAA with increasing 4-MU-α-glucoside concentrations
[3] = target: T2, lactase-phlorizin hydrolase (LPH) (Mus musculus, UniProt F8VPT3); assay: competitive ABPP in mouse intestine homogenates, LPH; type: biochemical; settings: mouse duodenum extracts; 0-100 μM; pH 6.0
T2 construct: cABPP in mouse intestine homogenates; from tissue; host or cells: duodenum of wild type mice
T2 sequence (F8VPT3 22-1931): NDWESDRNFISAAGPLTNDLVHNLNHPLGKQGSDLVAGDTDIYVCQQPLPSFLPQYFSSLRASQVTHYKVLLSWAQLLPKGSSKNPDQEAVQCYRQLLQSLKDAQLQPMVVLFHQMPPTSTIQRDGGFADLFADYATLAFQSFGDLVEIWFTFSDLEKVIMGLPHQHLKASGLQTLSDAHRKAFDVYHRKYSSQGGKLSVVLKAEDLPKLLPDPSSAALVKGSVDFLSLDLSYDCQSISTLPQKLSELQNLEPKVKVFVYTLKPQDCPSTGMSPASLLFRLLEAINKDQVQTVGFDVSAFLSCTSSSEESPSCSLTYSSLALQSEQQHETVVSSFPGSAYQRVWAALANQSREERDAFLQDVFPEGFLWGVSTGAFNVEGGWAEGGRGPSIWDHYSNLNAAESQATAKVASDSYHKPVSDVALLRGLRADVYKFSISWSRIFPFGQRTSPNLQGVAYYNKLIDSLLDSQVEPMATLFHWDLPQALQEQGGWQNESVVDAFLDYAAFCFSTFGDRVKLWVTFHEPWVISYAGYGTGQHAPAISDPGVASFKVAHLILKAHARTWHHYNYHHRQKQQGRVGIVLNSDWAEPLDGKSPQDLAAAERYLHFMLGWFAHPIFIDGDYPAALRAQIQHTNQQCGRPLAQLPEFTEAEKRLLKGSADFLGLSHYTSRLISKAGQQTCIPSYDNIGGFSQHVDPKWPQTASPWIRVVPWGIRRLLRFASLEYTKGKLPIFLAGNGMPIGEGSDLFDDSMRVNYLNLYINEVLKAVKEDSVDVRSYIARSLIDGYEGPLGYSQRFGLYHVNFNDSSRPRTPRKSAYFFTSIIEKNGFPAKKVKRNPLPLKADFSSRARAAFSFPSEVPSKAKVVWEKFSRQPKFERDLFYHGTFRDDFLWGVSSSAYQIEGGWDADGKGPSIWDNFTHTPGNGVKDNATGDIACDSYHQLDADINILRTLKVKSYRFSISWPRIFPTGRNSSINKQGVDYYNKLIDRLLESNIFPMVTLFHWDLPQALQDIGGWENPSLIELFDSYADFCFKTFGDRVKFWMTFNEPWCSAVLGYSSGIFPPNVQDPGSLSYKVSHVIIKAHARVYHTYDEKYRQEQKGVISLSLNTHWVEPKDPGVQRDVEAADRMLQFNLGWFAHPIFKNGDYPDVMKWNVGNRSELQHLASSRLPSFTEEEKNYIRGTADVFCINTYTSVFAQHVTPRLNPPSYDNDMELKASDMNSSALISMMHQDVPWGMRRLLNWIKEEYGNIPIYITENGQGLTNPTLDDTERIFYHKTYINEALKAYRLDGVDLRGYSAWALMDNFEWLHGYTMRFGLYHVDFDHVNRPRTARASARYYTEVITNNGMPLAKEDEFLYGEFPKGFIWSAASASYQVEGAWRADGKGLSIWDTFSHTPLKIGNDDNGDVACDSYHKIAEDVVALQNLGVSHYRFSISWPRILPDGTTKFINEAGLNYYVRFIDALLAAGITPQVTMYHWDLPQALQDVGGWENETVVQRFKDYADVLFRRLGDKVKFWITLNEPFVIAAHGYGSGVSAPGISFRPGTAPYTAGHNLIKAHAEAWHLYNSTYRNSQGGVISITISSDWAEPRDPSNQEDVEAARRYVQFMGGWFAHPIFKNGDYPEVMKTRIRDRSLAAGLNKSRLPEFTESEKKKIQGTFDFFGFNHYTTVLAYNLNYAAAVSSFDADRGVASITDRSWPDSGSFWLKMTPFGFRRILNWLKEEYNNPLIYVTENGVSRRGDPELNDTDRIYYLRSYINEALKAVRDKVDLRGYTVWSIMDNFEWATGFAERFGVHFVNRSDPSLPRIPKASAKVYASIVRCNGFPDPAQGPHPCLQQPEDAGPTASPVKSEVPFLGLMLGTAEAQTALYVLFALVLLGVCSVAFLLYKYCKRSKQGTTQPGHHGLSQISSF

[4] = system: maltase-glucoamylase (MGAM); assay: competitive ABPP in mouse intestine homogenates, MGAM; type: biochemical

Structure (SMILES) | IC50 [1] | Ki [2] | Ki potency relative to NB-DNJ 2 (more potent) [2] | inhibition of LPH activities by cABPP, in words [3] | potency on MGAM relative to rhGAA or GANAB (less potent) [4] | inhibition of MGAM by cABPP, in words ([4]; mouse duodenum extracts, 0-100 μM, 30 min 37 °C)
O=S1(=O)N[C@H]2[C@H](CO)[C@@H](O)[C@H](O)[C@@H](O)[C@H]2O1 [compound 6] | > 500 µM |  |  |  |  | 
O=S1(=O)N[C@@H]2[C@H](O)[C@@H](O)[C@H](O)[C@@H](CO)[C@@H]2O1 [compound 4, 1,6-epi-cyclophellitol cyclosulfamidate] | > 500 µM | 3.4 µM | approximately 5 fold | inhibit neither β-glucosidase nor β-galactosidase activities | ~100 fold | inhibit
